Experimental findings from patent publication US11135228B2, “Cysteinyl-proresolving mediators that promote resolution of infection and organ protection” (THE BRIGHAM AND WOMEN'S HOSPITAL, priority 2014, dated 2021) are described below.

The subject of experiment [1] is Mice (zymosan peritonitis). The experiment in a line: Zymosan peritonitis in mice: leukocyte counts and exudate eicosanoids. It counts as in vivo, mouse. Particulars: i.p. prior to 1 mg zymosan; 4 h; MaR1 10 ng. The protocol: In determined experiments, mice were administered SC isolates from regenerating planaria i.p., obtained as described in the lipid mediator metabololipidomics and isolation of bioactive fractions section below, immediately prior to zymosan administration (i.p. 1 mg/mouse). After 4 h, peritoneal exudates were obtained, leukocytes enumerated as detailed above and eicosanoid levels assessed by lipid mediator metabololipidomics as described below.

Experiment [2] has as its system Planaria (Dugesia japonica). The experiment in a line: Planaria tissue regeneration after surgical injury (head resection), tissue regeneration index. It counts as in vivo. Particulars: surgically injured planaria vs vehicle. The protocol:
(§1) Planaria regeneration: Planaria (Dugesia japonica; Dj) were kept in water (Poland Spring) at 18° C. All animals were starved for at least 7 days prior to experiments. Tissue regeneration was assessed as in (12). Briefly, planaria were subject to head resection post-occularly (surgical Injury). The posterior portions of the planaria were then placed in spring water containing 0.01% EtOH, SPE-C isolate fraction 2 from resolving exudates or milk at the indicated dilutions, U0126 (Extracellular signal-regulated kinases (ERK) inhibitor; Cell Signaling Technology; 25 μM (16)), U0126 plus resolving exudates SPE-C isolates fraction 2, SCI (100 nM), SCII (100 nM), lipoxygenase inhibitor (baicalein, 10 μM) or lipoxygenase inhibitor plus SCI and SCII (100 nM). The extent of tissue regeneration during a 6-day period for D. japonica was determined using captured images of the regenerating blastemas at regular intervals (24 h). These images were analyzed using ImageJ software. A tissue regeneration index (TRI) was employed that took into consideration the size of the regenerated tissue total area (A) and the post-ocular width W of the animal, where TRI=A/W. In determined experiments, planaria were injured and incubated in water, containing 10^8CFU E. coli (serotype O6:K2:H1) or with E. coli plus SCI and SCII (100 nM), and tissue regeneration indices assessed as described above.
Planaria regeneration: Planaria (Dugesia japonica) were kept in water (Poland. Spring; Nestlé Waters North America, Stamford, Conn., USA) at 18° C. All animals were starved for at least 7 d before the experiments. Tissue regeneration was assessed as described previously (10). In brief, planaria were subjected to head resection postoccularly (surgical injury). The posterior portions of the planaria were then placed in spring water containing 0.01% EtOH, 16-glutathionyl, 17-hydroxyl-4Z,7Z,10,12,14,19Z-docosahexaenoic acid plus 16-cysteinylglycinyl, 7-hydroxyl-4Z,7Z,10,12,14,19Z-docosahexaenoic acid (50 nM; each) or 8-gutathionyl, 7,17-dihydroxyl-4Z9,11,13Z,15E,19Z-docosahexaenoic acid plus 8-cysteinylglycinyl, 7,17-dihydroxyl-4Z,9,11,13Z,15E,19Z-docosahexaenoic acid (50 nM, each). The extent of tissue regeneration during a 6-d period was determined using captured images of the regenerating blastemas at regular intervals (24 h). These images were analyzed using ImageJ software (NIH, Bethesda, Md., USA). A tissue regeneration index (TRI) was used that took into consideration the size of the regenerated tissue total area (A) and the postocular width (W), where TRI=A/W (10).

The test system of the next experiment is LOX. The experiment in a line: SC levels in regenerating planaria with lipoxygenase inhibitor (LC-MS-MS). It counts as in vivo, Dugesia japonica. Particulars: measured 3 days post-surgery. The protocol: as §1, with “The posterior portions of the planaria were then placed in spring water containing 0.01% EtOH, SPE-C isolate fraction 2 from resolving exudates or milk at the indicated dilutions, U0126 (Extracellular signal-regulated kinases (ERK) inhibitor; Cell Signaling Technology; 25 μM (16)), U0126 plus resolving exudates SPE-C isolates fraction 2, SCI (100 nM), SCII (100 nM), lipoxygenase inhibitor (baicalein, 10 μM) or lipoxygenase inhibitor plus SCI and SCII (100 nM).” left out
Lipid mediator metabololipidomics and isolation of bioactive fractions: Peritoneal exudates and exudate cell incubations were immediately placed in 2 volumes of methanol. For lipid mediator profiling, 500 pg each of deuterium-labeled internal standards: d8-5S-HETE, d4-LTB4, d5-LXA4, d4-PGE2, and d5-LTC4 were added to facilitate quantification in each respective chromatographic region and sample recovery. […]

SMILES strings stand for the structures.

Turning to `CC/C=C\C/C=C\C[C@H](O)\C=C/C=C/C=C/[C@H](O)C/C=C\CCC(=O)O` [MaR1, 7R,14S-dihydroxy-docosa-4Z,8E,10E,12Z,16Z,19Z-hexaenoic acid], in experiment [1], the “exudate eicosanoid levels including LTB4 and thromboxane (Tx) B2” value is listed as “shared”; the “neutrophil recruitment in murine peritonitis” value is on record as “shared”. In addition, in experiment [2], the “tissue regeneration / head regrowth (in words)” value was “accelerated this process to essentially the same extent”.
As for `O=c1cc(-c2ccccc2)oc2cc(O)c(O)c(O)c12` [baicalein, reference compound], the “levels of both SCI and SCII” value in the experiment on LOX was “reduced”. Besides, the “tissue regeneration / head regrowth (in words)” value in experiment [2] is reported as “significantly delayed head regrowth”.
